The target in assay [1] is T1, RyR2 (Rattus norvegicus, UniProt B0LPN4). Nature of the assay: Fluorescent CaM binding at the Z-line and at RyR2 (FKBP12.6-CaM FRET) in permeabilized myocytes. Also noted: These fluorescent proteins were added to saponin-permeabilized myocytes with or without pre-equilibration with saturating DPc10 concentration; endogenous in cells; host or cells: saponin-permeabilized rat ventricular myocytes. As to the method: These fluorescent proteins were added to saponin-permeabilized myocytes with or without pre-equilibration with saturating DPc10 concentration. […] We also did this with high [CaM] (500 nmol/L) that saturates RyR2 with CaM under control conditions (without DPc10; FIG. 17C). […] To test whether DPc10 and CaM bind at the same or nearby RyR2 sites, we measured FRET between CaM and DPc10.
CaM also binds to RyR2 and reduces RyR2 open probability, and works as a regulatory protein for RyR2 channel gating (Yamaguchi et al., J Biol Chem. 2003; 278:23480-23486; Balshaw et al., J Biol Chem. 2001; 276:20144-20153; Yang et al., Circ Res. 2014; 114:295-306); Yamaguchi et al., J Clin Invest. 2007; 117:1344-1353). We measured the effect of H2O2 on CaM-RyR2 binding affinity using F-CaM as in our previous reports (Yang et al., Circ Res. 2014; 114:295-306; Cornea et al., Proc Natl Acad Sci USA. 2009; 106:6128-6133).
(50 μmol/L) in media containing 50 μmol/L H2O2 (the same concentration used in myocyte pre-incubation experiments). This allowed F-CaM oxidation (and call this F-CaM^Ox). This was then diluted 2500-fold to 20 nmol/L F-CaM^Ox and no H2O2 was present in the myocyte bath.
As a further test of whether RyR2 oxidation alone inhibits subsequent CaM affinity, we removed H2O2 from the myocytes by repeated washing, prior to the addition of F-CaM.

The target of assay [2] is T1, RyR2. Nature of the assay: F-DPc10 wash-in and washout kinetics at the myocyte Z-line. Type of assay: binding. Also on record: endogenous in cells; host or cells: saponin-permeabilized adult rat ventricular myocytes. Conditions: for effect on HF647-DPc10 wash-out kinetics: dantrolene 1 μmol/L, NF-DPc10 5 μmol/L. How it is done:
To characterize DPc10-binding kinetics at Z-lines, we performed F-DPc10 wash-in (500 nmol/L) and washout experiments in permeabilized myocytes (FIG. 10A). Association (τwash-in=79.0±3.2 minutes) and dissociation (τwashout=149.8±4.4 minutes) were very slow compared with similar FKBP12.6 measurements (Guo et al., Circ Res, 2010; 106:1743-1752). From the wash-in/washout measurements, we calculated the association and dissociation rates constants, kon and koff, respectively, according to the following equation: kwash-in=[F-DPc10]kon+koff where kwashout≈koff and k=1/τ (s^−1). Accordingly, kon=202±20 (L mol^−1 s^−1) and koff=0.11±0.01 (10^−3 s^−1). […] We repeated this kinetic analysis using FRET between FKBP12.6 and DPc10, thus assessing the RyR2-specific DPc10 binding (FIG. 11A AND 11B). […] Based on these kinetic and affinity analyses, we infer that most of the Z-line-specific DPc10 binding is to RyR2. This is also consistent with Bmax, which would imply ≈1 DPc10 per RyR2 monomer.
We were intrigued by the slow kwash-in and conducted measurements to further understand the basis of this slow association. We tested the hypothesis that at resting [Ca^2+]i, DPc10 access to its RyR2 binding site is sterically hindered. If the N-terminal and central domains are tightly zipped to each other, then this interaction may occlude the DPc10-binding site on the RyR2, thus limiting the kon for DPc10. Alternatively, a limiting factor may be the rate at which DPc10 adopts a conformation that can bind to RyR2. To discern between these mechanisms, we determined the effect of [F-DPc10] on τwash-in. If the small fraction of DPc10 in the right conformation limits binding rate, then τwash-in should be faster at higher [F-DPc10], according to Equation. […] Instead, a 10-fold increase in [F-DPc10] had no significant effect on the τwash-in, although it did increase Bmax (FIG. 10B). The same was seen when using FKBP12.6-DPc10 FRET to assess τwash-in with 0.5 vs 5 μmol/L HF647-DPc10 (FIG. 12A AND 12B).
In our working model, under resting conditions, the RyR2 closed state may be stabilized by the interaction between the N-terminal and central domain in the zipped state. We hypothesized that conditions that promote RyR2 opening might enhance the rate of unzipping and accelerate τwash-in for F-DPc10. To test this, we first monitored F-DPc10 wash-in at elevated Ca^2+ (500 nmol/L). However, the 13% faster mean τwash-in was not significant (FIG. 13A). […] Thus, we preincubated myocytes with ryanodine (100 μmol/L) plus caffeine ([…]), which are known to favor long RyR2 openings and were reported to cause RyR2 domain unzipping in HEK293 cells (Liu et al., J Cell Sci, 2010; 123: 1775-1784). Ryanodine+caffeine produced a 21% faster τwash-in (P=0.002; FIG. 13B). However, the most significant effect was seen after presaturating RyR2 with NF-DPc10 (and then NF-DPc10 washout with F-DPc10 present; FIG. 13A). […] Assuming that koff of NF-DPc10 is the same as for F-DPc10 and using Equation, the kon is increased by 3.2-fold by unzipping as a result of prebinding of NF-DPc10 to the RyR2. Our working hypothesis is that the RyR2 open state may increase the probability of an RyR2 shifting to the unzipped state and may allow faster F-DPc10 wash-in. It also seems that the RyR2 open state (favored by caffeine-ryanodine) differs from the unzipped state (bound with DPc10).
Both FKBP12.6 and CaM bind to the RyR2 and can reduce channel opening, which might alter DPc10 binding. […] Neither CaM nor FKBP12.6 pretreatment altered M-line F-DPc10 fluorescence (FIG. 15). […] We infer that CaM stabilizes the domain interaction between N-terminal and central domains in the zipped state and thereby may reduce DPc10 access to its binding site. To test for direct CaM-DPc10 interaction, we performed control FRET measurements between donor-labeled CaM and acceptor-labeled DPc10 in solution in the absence of RyR. The maximal FRET efficiency (<1%) ruled out direct CaM-DPc10 interaction. […]

Where no end group is shown, it is not given here.

T1 sequence (B0LPN4 whole entry): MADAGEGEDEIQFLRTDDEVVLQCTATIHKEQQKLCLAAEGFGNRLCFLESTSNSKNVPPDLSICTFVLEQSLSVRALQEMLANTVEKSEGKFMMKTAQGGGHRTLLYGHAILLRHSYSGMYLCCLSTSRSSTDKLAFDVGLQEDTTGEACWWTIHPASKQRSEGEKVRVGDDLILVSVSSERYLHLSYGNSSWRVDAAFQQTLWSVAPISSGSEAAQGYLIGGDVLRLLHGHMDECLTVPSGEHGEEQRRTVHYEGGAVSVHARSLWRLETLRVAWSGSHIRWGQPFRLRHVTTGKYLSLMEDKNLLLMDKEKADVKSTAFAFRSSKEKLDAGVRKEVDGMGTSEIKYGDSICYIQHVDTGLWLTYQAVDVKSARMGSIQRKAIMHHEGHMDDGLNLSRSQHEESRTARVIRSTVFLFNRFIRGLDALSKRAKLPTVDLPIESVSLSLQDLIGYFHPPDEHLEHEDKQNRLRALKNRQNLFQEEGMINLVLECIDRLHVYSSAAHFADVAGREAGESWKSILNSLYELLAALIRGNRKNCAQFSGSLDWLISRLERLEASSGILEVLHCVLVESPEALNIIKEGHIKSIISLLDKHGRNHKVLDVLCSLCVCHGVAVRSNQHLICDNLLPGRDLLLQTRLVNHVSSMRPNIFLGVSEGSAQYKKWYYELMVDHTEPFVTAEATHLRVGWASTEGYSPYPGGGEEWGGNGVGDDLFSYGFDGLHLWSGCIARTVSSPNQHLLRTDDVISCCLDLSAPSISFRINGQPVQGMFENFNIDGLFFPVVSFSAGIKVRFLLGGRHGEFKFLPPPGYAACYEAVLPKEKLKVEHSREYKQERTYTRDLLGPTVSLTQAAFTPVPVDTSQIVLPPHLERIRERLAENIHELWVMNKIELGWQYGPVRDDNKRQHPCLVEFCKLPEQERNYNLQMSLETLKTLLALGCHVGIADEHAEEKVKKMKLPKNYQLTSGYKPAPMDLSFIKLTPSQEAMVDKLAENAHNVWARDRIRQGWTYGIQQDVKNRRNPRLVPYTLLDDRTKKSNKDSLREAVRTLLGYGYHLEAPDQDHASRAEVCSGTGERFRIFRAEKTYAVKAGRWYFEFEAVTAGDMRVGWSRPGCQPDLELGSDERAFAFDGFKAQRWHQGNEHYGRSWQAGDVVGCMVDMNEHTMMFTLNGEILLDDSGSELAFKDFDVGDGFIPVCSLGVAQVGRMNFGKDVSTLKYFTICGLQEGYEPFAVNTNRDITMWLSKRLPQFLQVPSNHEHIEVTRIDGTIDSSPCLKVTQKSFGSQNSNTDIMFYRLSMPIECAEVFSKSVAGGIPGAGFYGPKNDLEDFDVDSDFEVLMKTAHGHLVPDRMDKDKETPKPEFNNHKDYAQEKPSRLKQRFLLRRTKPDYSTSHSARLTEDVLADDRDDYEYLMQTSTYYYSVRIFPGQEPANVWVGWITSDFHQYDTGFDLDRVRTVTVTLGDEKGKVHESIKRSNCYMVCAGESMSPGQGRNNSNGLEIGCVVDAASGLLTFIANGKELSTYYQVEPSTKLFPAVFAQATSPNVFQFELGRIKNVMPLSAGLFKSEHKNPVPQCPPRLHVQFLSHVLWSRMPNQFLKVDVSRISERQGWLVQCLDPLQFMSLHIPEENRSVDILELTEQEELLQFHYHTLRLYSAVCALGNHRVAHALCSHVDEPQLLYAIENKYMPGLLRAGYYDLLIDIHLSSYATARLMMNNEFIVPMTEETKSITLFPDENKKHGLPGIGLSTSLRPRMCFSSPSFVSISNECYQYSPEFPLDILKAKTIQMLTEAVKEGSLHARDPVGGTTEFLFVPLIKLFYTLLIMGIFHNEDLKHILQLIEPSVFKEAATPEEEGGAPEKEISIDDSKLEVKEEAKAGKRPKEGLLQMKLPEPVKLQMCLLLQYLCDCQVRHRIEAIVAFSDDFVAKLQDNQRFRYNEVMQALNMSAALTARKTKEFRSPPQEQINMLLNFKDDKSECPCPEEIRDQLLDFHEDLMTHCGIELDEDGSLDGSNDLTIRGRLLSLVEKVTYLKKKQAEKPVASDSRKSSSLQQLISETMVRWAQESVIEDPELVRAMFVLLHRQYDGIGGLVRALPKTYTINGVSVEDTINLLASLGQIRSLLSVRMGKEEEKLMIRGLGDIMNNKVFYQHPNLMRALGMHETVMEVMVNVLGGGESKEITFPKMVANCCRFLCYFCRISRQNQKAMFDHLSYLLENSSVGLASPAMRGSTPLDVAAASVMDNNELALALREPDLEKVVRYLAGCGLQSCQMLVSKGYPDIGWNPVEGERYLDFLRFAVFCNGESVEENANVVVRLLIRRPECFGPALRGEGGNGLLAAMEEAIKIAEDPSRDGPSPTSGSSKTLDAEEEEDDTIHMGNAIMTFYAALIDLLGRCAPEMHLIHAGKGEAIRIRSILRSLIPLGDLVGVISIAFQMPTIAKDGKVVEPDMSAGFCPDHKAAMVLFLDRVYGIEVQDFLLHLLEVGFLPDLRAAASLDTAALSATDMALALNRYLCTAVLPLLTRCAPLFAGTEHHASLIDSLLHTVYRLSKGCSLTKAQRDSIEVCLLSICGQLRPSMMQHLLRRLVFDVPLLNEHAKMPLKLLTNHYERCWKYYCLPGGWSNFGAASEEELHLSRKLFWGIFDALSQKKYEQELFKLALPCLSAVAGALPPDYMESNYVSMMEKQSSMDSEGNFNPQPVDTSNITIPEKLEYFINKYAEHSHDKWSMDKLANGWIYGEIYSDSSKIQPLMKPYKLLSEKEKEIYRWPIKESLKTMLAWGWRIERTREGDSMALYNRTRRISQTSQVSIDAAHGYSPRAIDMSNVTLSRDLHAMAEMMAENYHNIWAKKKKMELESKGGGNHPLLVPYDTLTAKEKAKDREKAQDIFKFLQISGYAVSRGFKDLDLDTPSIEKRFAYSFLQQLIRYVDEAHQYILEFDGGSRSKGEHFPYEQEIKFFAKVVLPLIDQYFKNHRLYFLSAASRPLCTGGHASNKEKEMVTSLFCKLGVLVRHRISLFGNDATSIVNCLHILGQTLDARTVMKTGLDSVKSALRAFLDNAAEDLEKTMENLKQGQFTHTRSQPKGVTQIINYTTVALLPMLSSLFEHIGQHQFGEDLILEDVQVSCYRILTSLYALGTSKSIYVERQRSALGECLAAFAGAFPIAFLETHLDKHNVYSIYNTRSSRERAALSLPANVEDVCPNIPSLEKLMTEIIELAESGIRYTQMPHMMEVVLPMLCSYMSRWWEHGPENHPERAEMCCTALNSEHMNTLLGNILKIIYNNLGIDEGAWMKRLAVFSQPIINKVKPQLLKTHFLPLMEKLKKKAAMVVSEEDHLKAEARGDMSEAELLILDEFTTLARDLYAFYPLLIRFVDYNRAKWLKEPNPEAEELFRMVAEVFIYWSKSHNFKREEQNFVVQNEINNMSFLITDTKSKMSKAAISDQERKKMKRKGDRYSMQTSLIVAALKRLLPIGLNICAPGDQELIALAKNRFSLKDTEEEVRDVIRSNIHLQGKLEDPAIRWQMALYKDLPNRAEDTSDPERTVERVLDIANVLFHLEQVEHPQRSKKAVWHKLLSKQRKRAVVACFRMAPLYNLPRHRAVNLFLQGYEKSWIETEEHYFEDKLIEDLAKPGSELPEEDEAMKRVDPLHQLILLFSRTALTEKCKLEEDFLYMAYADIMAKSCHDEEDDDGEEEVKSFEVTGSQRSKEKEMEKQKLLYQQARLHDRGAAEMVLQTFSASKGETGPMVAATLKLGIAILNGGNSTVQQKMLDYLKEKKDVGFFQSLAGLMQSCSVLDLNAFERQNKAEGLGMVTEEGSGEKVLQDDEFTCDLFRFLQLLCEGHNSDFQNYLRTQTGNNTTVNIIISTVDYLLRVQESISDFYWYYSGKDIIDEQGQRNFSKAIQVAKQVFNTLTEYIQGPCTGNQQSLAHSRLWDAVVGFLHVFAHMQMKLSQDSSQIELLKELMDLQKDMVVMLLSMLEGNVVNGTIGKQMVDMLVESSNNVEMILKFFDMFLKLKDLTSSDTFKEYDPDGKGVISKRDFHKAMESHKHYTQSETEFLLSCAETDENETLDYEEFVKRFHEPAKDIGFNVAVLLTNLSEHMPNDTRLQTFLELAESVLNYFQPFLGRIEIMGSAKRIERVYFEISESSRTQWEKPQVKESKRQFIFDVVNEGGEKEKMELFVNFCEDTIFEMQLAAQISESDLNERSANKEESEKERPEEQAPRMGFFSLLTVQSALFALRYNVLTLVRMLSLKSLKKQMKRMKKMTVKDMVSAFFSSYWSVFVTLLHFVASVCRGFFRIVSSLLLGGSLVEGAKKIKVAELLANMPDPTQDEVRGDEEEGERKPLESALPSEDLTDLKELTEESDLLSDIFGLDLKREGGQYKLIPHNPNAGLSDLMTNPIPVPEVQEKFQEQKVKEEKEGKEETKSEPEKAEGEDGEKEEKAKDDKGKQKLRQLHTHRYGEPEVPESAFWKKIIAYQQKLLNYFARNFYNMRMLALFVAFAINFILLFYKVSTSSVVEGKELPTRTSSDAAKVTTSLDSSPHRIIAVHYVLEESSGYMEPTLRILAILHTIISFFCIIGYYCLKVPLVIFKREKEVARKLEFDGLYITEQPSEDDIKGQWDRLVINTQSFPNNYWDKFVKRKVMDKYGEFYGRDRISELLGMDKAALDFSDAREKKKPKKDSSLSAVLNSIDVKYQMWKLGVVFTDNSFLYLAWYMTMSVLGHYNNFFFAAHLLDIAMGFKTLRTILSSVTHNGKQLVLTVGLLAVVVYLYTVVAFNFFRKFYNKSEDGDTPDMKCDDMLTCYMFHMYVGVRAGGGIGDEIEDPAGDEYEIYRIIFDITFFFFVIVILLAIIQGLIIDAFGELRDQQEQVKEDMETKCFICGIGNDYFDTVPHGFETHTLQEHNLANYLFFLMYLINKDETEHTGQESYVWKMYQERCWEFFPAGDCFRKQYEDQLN

Consider `OO` [H2O2, hydrogen peroxide], for which the “reduction of F-CaM binding, myocytes pre-treated with H2O2” value at RyR2 [1] (50 μmol/L H2O2 not removed, F-CaM 20 nmol/L) worked out at 50%. Moreover, the “reduction of F-CaM binding at the Z-line” value at RyR2 [1] (50 μmol/L H2O2 removed by washing before F-CaM) turned out to be 32%. The “effect on F-CaM binding at the Z-line” value at RyR2 [1] (10 and 50 μmol/L H2O2 pretreatment, F-CaM 20 nmol/L) is reported as “reduced”. Also, at RyR2 [1] (subsaturating A-CaM, 50 μM H2O2), the “reduction of RyR2 A-CaM binding” value is around 50%.

Turning to `O=C1CN(/N=C/c2ccc(-c3ccc([N+](=O)[O-])cc3)o2)C(O)=N1` [dantrolene], the “reduction of maximal HF647-DPc10 binding (Bmax)” value on RyR2 [2] (1 μmol/L dantrolene) is listed as 74%. Moreover, the “effect on HF647-DPc10 wash-out kinetics” value on RyR2 [2] was “had no effect”. For the same compound, at RyR2 [1] (dantrolene 1 μmol/L, AIP 1 μmol/L), the “restoration of F-CaM binding in H2O2-treated myocytes” value was “partially restore”. Besides, the “effect on CaM-RyR2 affinity under control conditions” value at RyR2 [1] (no H2O2) is reported as “Neither AIP nor dantrolene alter”.

As for “GFCPDHKAAMVLFLDRVYGIEVQDFLLHLLEVGFLP [DPc10]”, the “acceleration of F-DPc10 association, by a factor of” value at RyR2 [2] (after presaturating RyR2 with NF-DPc10, then washout with F-DPc10 present) is on record as “≈ 2”. For the same compound, the “effect on HF647-DPc10 wash-out kinetics” value at RyR2 [2] is “accelerate”. In addition, at RyR2 [2] (prebinding of NF-DPc10 to RyR2), the “increase of kon of F-DPc10” value is reported as 3.2 fold. Further, the “increase in kon of F-DPc10” value on RyR2 [2] (pretreatment with NF-DPc10) is “≈ 320%”. The “effect on CaM binding at the RyR2 and at the Z-line” value on RyR2 [1] (20 nmol/L CaM, DPc10 pretreatment) is given as “significantly reduced”. For the same compound, the “effect on CaM binding at the RyR2 (FRET) and at the Z-lines (total)” value at RyR2 [1] (500 nmol/L AF568-34-CaM, DPc10-treated myocytes) was “reduced”.

The record behind these values is patent publication US10281476B2, “Methods to identify modulators of RyR calcium channels” (REGENTS OF THE UNIVERSITY OF MINNESOTA, priority 2013, dated 2019).
